Assay results published in patent US20100172854A1, “ANTIBACTERIAL FORMULATIONS” (priority 2007, published 2010).
≈ marks a conversion by molar mass, not a printed value.

Assays:
S. aureus ATCC 12601 [1] = test: MBC assay; format: cell-based, Staphylococcus aureus
Protocol: (§1) The staphylococci were cultured and maintained on Mueller-Hinton Medium (agar and broth) at pH 7.2; cultures were incubated aerobically at 37° C. for 19-20 hours.
(§2) This assay, normally carried out after an MIC assay, determines the minimum concentration of a compound that is lethal to the micro-organism being tested.
(§3) These samples were then individually sub-cultured on antibiotic-free agar medium, under the incubation conditions described above. Following incubation they were examined visually for microbial growth.

S. aureus ATCC 12604 [2] = test: MBC assay; format: cell-based, Staphylococcus aureus
Protocol: as §1, §2, §3

S. aureus ATCC 25923 = test: MBC assay; format: cell-based, Staphylococcus aureus
Protocol: as §1, §2, §3

S. aureus NCTC 12981 [3] = test: MBC assay; format: cell-based, Staphylococcus aureus
Protocol: as §1, §2, §3

S. aureus ATCC 12602 [4] = test: MBC assay; format: cell-based, Staphylococcus aureus
Protocol: as §1, §2, §3

S. aureus ATCC 12606 [5] = test: MBC assay; format: cell-based, Staphylococcus aureus
Protocol: as §1, §2, §3

S. aureus CPHL VISA Mu3 [6] = test: MBC assay; format: cell-based, Staphylococcus aureus; conditions: resistance phenotype Van (intermediate)
Protocol: as §1, §2, §3

S. aureus NCTC 12493 [7] = test: MBC assay; format: cell-based, Staphylococcus aureus
Protocol: as §1, §2, §3

S. aureus CPHL VISA Mu50 [8] = test: MBC assay; format: cell-based, Staphylococcus aureus; conditions: resistance phenotype Van (intermediate)
Protocol: as §1, §2, §3

S. aureus ATCC 12601 [9] = test: MIC assay; format: cell-based; conditions: Staphylococcus aureus, ATCC12601
Protocol: as §1
(§4) This is a standard international method for quantitatively assessing the antimicrobial activity of a compound in a liquid medium. The method used a sterile 96-well microtitre plate, capable of holding about 200 μl of liquid per well. The wells contained liquid culture medium and ranges of decreasing concentrations of the relevant test compound in doubling dilutions (e.g. 1000, 500, 250, 125 . . . μg/ml, etc. down to 0.49 μg/ml). The culture media were as described above.
(§5) The wells were inoculated with a liquid suspension of freshly grown micro-organism and incubated under the conditions described above. After incubation, the microtitre plate was examined visually (with the aid of a light box) for cloudiness in each well, which would indicate microbial growth. The MIC value was recorded as the lowest concentration of test compound required to inhibit microbial growth, i.e. the lowest concentration for which the liquid in the well remained clear.
(§6) The assays included both negative (culture medium with no micro-organisms) and positive (culture medium plus diluting solvent plus micro-organism) controls.

S. aureus ATCC 12607 = test: MIC assay; format: cell-based; conditions: Staphylococcus aureus, ATCC12607
Protocol: as §1, §4, §5, §6

S. aureus ATCC 12604 [10] = test: MIC assay; format: cell-based; conditions: Staphylococcus aureus, ATCC12604
Protocol: as §1, §4, §5, §6

[11] = tested on: Staphylococcus hominis ATCC 27844; test: MIC assay; format: cell-based; conditions: ATCC27844
Protocol: as §1, §4, §5, §6

[12] = tested on: Staphylococcus aureus ATCC 12600; test: MIC assay; format: cell-based; conditions: ATCC12600
Protocol: as §1, §4, §5, §6

[13] = tested on: Staphylococcus xylosus ATCC 29971; test: MIC assay; format: cell-based; conditions: ATCC29971
Protocol: as §1, §4, §5, §6

[14] = tested on: Staphylococcus capitis ATCC 27840; test: MIC assay; format: cell-based; conditions: ATCC27840
Protocol: as §1, §4, §5, §6

S. aureus NCTC 12981 [15] = test: MIC assay; format: cell-based; conditions: Staphylococcus aureus, NCTC12981
Protocol: as §1, §4, §5, §6

S. aureus ATCC 12602 [16] = test: MIC assay; format: cell-based; conditions: Staphylococcus aureus, ATCC12602
Protocol: as §1, §4, §5, §6

[17] = tested on: Staphylococcus warneri ATCC 27836; test: MIC assay; format: cell-based; conditions: ATCC27836
Protocol: as §1, §4, §5, §6

S. aureus ATCC 12605 = test: MIC assay; format: cell-based; conditions: Staphylococcus aureus, ATCC12605
Protocol: as §1, §4, §5, §6

S. aureus ATCC 12606 [18] = test: MIC assay; format: cell-based; conditions: Staphylococcus aureus, ATCC12606
Protocol: as §1, §4, §5, §6

[19] = tested on: S. aureus CPHL GISA HO41340156; test: MIC assay; format: cell-based; conditions: Staphylococcus aureus
Protocol: as §1, §4, §5, §6

S. aureus CPHL VISA Mu3 [20] = test: MIC assay; format: cell-based; conditions: Staphylococcus aureus
Protocol: as §1, §4, §5, §6

[21] = tested on: Staphylococcus aureus ATCC 29213; test: MIC assay; format: cell-based; conditions: ATCC29213, S. aureus ATCC 29213
Protocol: as §1, §4, §5, §6

S. aureus NCTC 12493 [22] = test: MIC assay; format: cell-based; conditions: Staphylococcus aureus, NCTC12493, resistance phenotype Met
Protocol: as §1, §4, §5, §6

[23] = tested on: Staphylococcus auricularis ATCC 33753; test: MIC assay; format: cell-based; conditions: ATCC33753
Protocol: as §1, §4, §5, §6

S. aureus ATCC 12600-U = test: MIC assay; format: cell-based; conditions: Staphylococcus aureus, ATCC12600
Protocol: as §1, §4, §5, §6

S. aureus CPHL EMRSA 17 = test: MIC assay; format: cell-based; conditions: Staphylococcus aureus
Protocol: as §1, §4, §5, §6

[24] = tested on: S. saprophyticus NCTC 7292; test: MIC assay; format: cell-based; conditions: Staphylococcus saprophyticus, NCTC7292
Protocol: as §1, §4, §5, §6

S. aureus CPHL VISA Mu50 [25] = test: MIC assay; format: cell-based; conditions: Staphylococcus aureus, resistance phenotype Van (intermediate)
Protocol: as §1, §4, §5, §6

SMILES: Cc1cc(Cc2cc(C)cc(C(C)(C)C)c2O)c(O)c(C(C)(C)C)c1 [AO 2246, 2,2′-methylene-bis(4-methyl-6-tert-butylphenol)]
- MIC/MBC Ratio (S. aureus ATCC 12601 [1]): 1
- MBC (S. aureus ATCC 12601 [1]; Staphylococcus aureus, ATCC12601): 1.95 µg/mL (≈ 5.73 µM)
- MIC/MBC Ratio (S. aureus ATCC 12604 [2]): 0.5
- MBC (S. aureus ATCC 12604 [2]; Staphylococcus aureus, ATCC12604): 3.9 µg/mL (≈ 11.5 µM)
- MIC/MBC Ratio (S. aureus ATCC 25923): 1
- MBC (S. aureus ATCC 25923; Staphylococcus aureus, ATCC25923): 7.8 µg/mL (≈ 22.9 µM)
- MIC/MBC Ratio (S. aureus NCTC 12981 [3]): 0.25
- MBC (S. aureus NCTC 12981 [3]; Staphylococcus aureus, NCTC12981): 7.8 µg/mL (≈ 22.9 µM)
- MIC/MBC Ratio (S. aureus ATCC 12602 [4]): 0.5
- MBC (S. aureus ATCC 12602 [4]; Staphylococcus aureus, ATCC12602): 3.9 µg/mL (≈ 11.5 µM)
- MIC/MBC Ratio (S. aureus ATCC 12606 [5]): 0.5
- MBC (S. aureus ATCC 12606 [5]; Staphylococcus aureus, ATCC12606): 3.9 µg/mL (≈ 11.5 µM)
- MBC (S. aureus CPHL VISA Mu3 [6]; Staphylococcus aureus): 7.8 µg/mL (≈ 22.9 µM)
- MIC/MBC Ratio (S. aureus CPHL VISA Mu3 [6]): 0.25
- MIC/MBC Ratio (S. aureus NCTC 12493 [7]; S. aureus NCTC 12493, resistance phenotype Met): 0.5
- MBC (S. aureus NCTC 12493 [7]; Staphylococcus aureus, NCTC12493): 1.95 µg/mL (≈ 5.73 µM)
- MBC (S. aureus CPHL VISA Mu50 [8]; Staphylococcus aureus): 15.6 µg/mL (≈ 45.8 µM)
- MIC/MBC Ratio (S. aureus CPHL VISA Mu50 [8]): 0.06
- MIC (S. aureus ATCC 12601 [9]): 1.95 µg/mL (≈ 5.73 µM)
- MIC (S. aureus ATCC 12607): 1.95 µg/mL (≈ 5.73 µM)
- MIC (S. aureus ATCC 12604 [10]): 1.95 µg/mL (≈ 5.73 µM)
- MIC [11]: 7.8 µg/mL (≈ 22.9 µM)
- MIC [12]: 0.98 µg/mL (≈ 2.88 µM)
- MIC [13]: 3.9 µg/mL (≈ 11.5 µM)
- MIC [14]: 3.9 µg/mL (≈ 11.5 µM)
- MIC (S. aureus NCTC 12981 [15]): 1.95 µg/mL (≈ 5.73 µM)
- MIC (S. aureus ATCC 12602 [16]): 1.95 µg/mL (≈ 5.73 µM)
- MIC [17]: 15.6 µg/mL (≈ 45.8 µM)
- MIC (S. aureus ATCC 12605): 1.95 µg/mL (≈ 5.73 µM)
- MIC (S. aureus ATCC 12606 [18]): 1.95 µg/mL (≈ 5.73 µM)
- MIC [19]: 1.95 µg/mL (≈ 5.73 µM)
- MIC (S. aureus CPHL VISA Mu3 [20]): 1.95 µg/mL (≈ 5.73 µM)
- MIC [21]: 3.9 µg/mL (≈ 11.5 µM)
- MIC (S. aureus NCTC 12493 [22]): 0.98 µg/mL (≈ 2.88 µM)
- MIC [23]: 1.95 µg/mL (≈ 5.73 µM)
- MIC (S. aureus ATCC 12600-U): 0.98 µg/mL (≈ 2.88 µM)
- MIC (S. aureus CPHL EMRSA 17): 1.95 µg/mL (≈ 5.73 µM)
- MIC [24]: 3.9 µg/mL (≈ 11.5 µM)
- MIC (S. aureus CPHL VISA Mu50 [25]): 0.98 µg/mL (≈ 2.88 µM)
